Key:
HLA-B*0702 = biological target: T1, HLA-B*0702 (Homo sapiens, UniProt P01889); assay: Measurement of peptide relative affinity to HLA-B*0702 (T2-B7 cells, ME-1 mAb staining); format: binding
T1 construct: expressed in transfected cells; host or cells: human T2 cells transfected with HLA-B*0702 (T2-B7)
Method: The affinity of a peptide for HLA-B*0702 can be determined by methods known in the art, for instance by the assay described by Rohrlich et al., 2003. Results are expressed as relative affinity (RA) when compared to a reference peptide. […] Peptides with RA greater than 10 are therefore considered to be cryptic peptides (or epitopes).
Measurement of Peptide Relative Affinity to HLA-B*0702. The protocol used has been described previously (Rohrlich et al., 2003). Briefly, T2-B7 cells were incubated at 37° C. for 16 hours with peptides concentrations ranging from 100 μM to 0.1 μM, and then stained with ME-1 monoclonal antibody (mAb) to quantify the surface expression of HLA-B*0702. For each peptide concentration, the HLA-B*0702 specific staining was calculated as the percentage of staining obtained with 100 μM of the reference peptide CMV265-274 (R10V; […], SEQ ID NO: 9). The relative affinity (RA) was determined as: RA=(Concentration of each peptide that induces 20% of HLA-B*0702-expression/Concentration of the reference peptide that induces 20% of HLA-B*0702 expression).

[1] = system: HLA-B*0702 transgenic mice; assay: CTL induction in vivo in HLA-B*0702 transgenic mice (immunogenicity, cytotoxic assay on peptide-loaded RMA-B7 targets); parameters: key: + for immunogenicity or native peptide cross recognition means that the peptide induced a specific response in at least one HLA-B*0702 transgenic mouse, able to recognized the corresponding native peptide; settings: Table V
Method: (§1) CTL Induction in vivo in HLA-B*0702 Transgenic Mice. Mice were injected subcutaneously with 100 μg of peptide emulsified in Incomplete Freund's Adjuvant (IFA) in the presence of 150 μg of the I-A^b restricted HBVcore128 T helper epitope ([…], SEQ ID NO: 10). After 11 days, 5×10^7 spleen cells were stimulated in vitro with peptide (10 μM). On day 6 of culture, the bulk responder populations were tested for specific cytotoxicity.
(§2) Cytotoxic assay. Targets were labelled with 100 μCi of Cr^51 for 60 min, plated in 96-well V-bottomed plates (3×10^3 cell/well in 100 μL of RPMI 1640 medium) and, when necessary, pulsed with peptides (1 μM) at 37° C. for 2 hours. Effectors were then added in the wells and incubated at 37° C. for 4 hours. Percentage of specific lysis was determined as: % Lysis=(Experimental Release−Spontaneous Release)/(Maximal Release−Spontaneous Release)×100.
(§3) HLA-B7 transgenic mice were vaccinated with the selected peptides, and eleven days later, their spleen cells were in vitro stimulated with the peptide.

T2-B7 cells = assay: IFNγ intracellular staining of human CTL stimulated with peptide-loaded T2-B7 cells; format: cell-based; settings: donor D5609, 4 pools; T2-B7 cells loaded with TERT444 or TERT444A1
Method: Generation of CTL from human PBMC. PBMC were collected by leukapheresis from healthy HLA-B*0702 volunteers. Dendritic cells (DC) were produced from adherent cells cultured for seven days (2×10^6 cells/ml) in the presence of 500 IU/ml GM-CSF and 500 IU/ml IL-4 (R&D Systems, Minneapolis, Minn.) in complete medium (RPMI-1640 supplemented with 10% heat inactivated human AB serum, […] L-Glutamine and antibiotics). On day seven, DC were pulsed with 10 μM peptides for 2 hrs; maturation agents Poly I:C (Sigma, Oakville, Canada) at 100 ng/ml and anti-CD40 mAb (clone G28-5, ATCC, Manassas, Va.) at 2 μg/ml were added in the culture and DCs were incubated at 37° C. overnight or up to 48 hours. Mature DC were then irradiated (3500 rads). CD8+ cells were purified by positive selection with CD8 MicroBeads (Miltenyi Biotec, Auburn, Calif.) according to the manufacturer's instructions. 2×10^5 CD8^+ cells+6×10^4 CD8^− cells were stimulated with 2×10^4 peptide pulsed DC in complete culture medium supplemented with 1000 IU/ml IL-6 and 5 IU/ml IL-12 (R&D Systems, Minneapolis, Minn.) in round-bottomed 96 well plates. From day seven, cultures were weekly restimulated with peptide-loaded DC in the presence of 20 IU/ml IL-2 (Proleukin, Chiron Corp., Emeryville, Calif.) and 10 ng/ml IL-7 (R&D Systems, Minneapolis, Minn.). […]

[2] = system: HLA-B*0702 transgenic mice; assay: CTL induction in vivo in HLA-B*0702 transgenic mice (immunogenicity, cytotoxic assay on peptide-loaded RMA-B7 targets); parameters: key: +: means that a specific immunoresponse was generated at least one HLA-B*0702 transgenic mice; settings: Table IV
Method: as §1, §2, §3

[3] = system: HLA-B*0702 transgenic mice; assay: as above; parameters: key to Corresponding native peptide cross-reconnaissance: + for immunogenicity or native peptide cross recognition means that the peptide induced a specific response in at least one HLA-B*0702 transgenic mouse, able to recognized the corresponding native peptide
Method: as §1, §2, §3

[4] = system: COS-7 cells transfected with HLA-B*0702 and TERT; assay: Peptide processing assay on COS-7 transfected cells (TNFα secretion by murine CTL); format: cell-based, simian; settings: COS-7 cells transfected with HLA-B*0702 and/or TERT
Method: Peptide Processing Assay on COS-7 Transfected Cells. 2.2×10^4 simian COS-7 cells were plated in flat-bottomed 96-well plates in DMEM+10% FCS, in triplicate for each condition. Eighteen hours later, cells were transfected with 100 ng of each DNA plasmid with DEAE Dextran. After 4 hours, PBS+10% DMSO was added for 2 minutes. Transfected COS cells were incubated in DMEM+10% FCS during 40 hours and then used to stimulate murine CTL in a TNFα secretion assay.
TNFα Secretion Assay. Transfected COS-7 cells at day 4 were suspended in […] of RPMI+10% FCS and used as stimulating cells. 5×10^4 murine T cells were then added in 50 μl RPMI 10% FCS and incubated for 6 hours. Each condition was tested in triplicate. 50 μl of the supernatant was collected to measure TNFα. Standard dilutions were prepared in 50 μl with final doses of TNFα ranging from 104 to 0 pg/ml. On both the supernatants and the standard dilutions, 3×10^4 TNFα sensitive WEHI-164c13 cells in 50 μl were added. They were incubated for 16 h at 37° C. Inhibition of cell proliferation was evaluated by the MTT colorimetric method (Espevik and Nissen-Meyer, 1986).

Sequence: APRRLVQLL [TERT444A1]
- Affinity for HLA-B*0702 (in words) (HLA-B*0702): strong affinity
- RA (HLA-B*0702; class symbols, Table IV): + (+ = 1 < RA < 10)
- Immunogenicity [1]: +
- Intracellular IFNg production by human CTL (T2-B7 cells): IFNg producing CTL were detected in pools 2 and 4
- Immunogenicity [2]: +
- Corresponding native peptide cross-reconnaissance ([3]; CTL induced in HLA-B*0702 transgenic mice): +
- Immunogenicity: specific CTL immune response (in words) ([3]; HLA-B*0702 transgenic mice): induced an immune response in the majority of vaccinated mice
- Recognition of endogenous TERT by peptide-induced murine CTL [4]: recognized COS-7 cells transfected with both HLA-B*0702 and TERT but not COS-7 cells transfected with either HLA-B*0702 or TERT

From US20170202936A1, “Identification, Optimization And Use Of Cryptic HLA-B7 Epitopes For Immunotherapy” (VAXON BIOTECH, priority 2006, published 2017)
